Where “and” joins values, the source holds several entries; their conditions need not be identical. Equal values may be shown once.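 Interpolation was linear, between the two tested concentrations surrounding the appropriate level; five concentrations were tested over 48 hours in 96-well plates. GI50 marks 50% less growth. At the TGI there is no net growth.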

Some test systems named below: NCI-H23 lung; SF-539 CNS; UACC-62 melanoma; KM12 colon; SF-268 CNS; OVCAR-3 ovarian; TK-10 renal; OVCAR-4 ovarian; MALME-3M melanoma; CAKI-1 renal.
Common to all, as to experiment: growth of human tumour cells (NCI), 48 h

Regarding `O=C1/C(=C\c2ccc([N+](=O)[O-])cc2)CS(=O)(=O)C/C1=C/c1ccc([N+](=O)[O-])cc1`, the GI50 with NCI-H23 lung was 0.252 µM; in the experiment with SF-539 CNS it was 0.136 µM; with UACC-62 melanoma it was 1.84 µM; in the experiment on KM12 colon, 0.25 µM; with SF-268 CNS, 0.359 µM; in the experiment with OVCAR-3 ovarian, 0.0761 µM. Also, the GI50 in the experiment on TK-10 renal is 0.992 µM; in the experiment with OVCAR-4 ovarian, 0.207 µM; with MALME-3M melanoma, 0.32 µM; in the experiment with CAKI-1 renal, 0.121 µM. The TGI in the experiment on NCI-H23 lung is 0.651 µM and 5.12 µM; with SF-539 CNS, 0.579 µM and 0.363 µM; in the experiment with UACC-62 melanoma, 0.519 µM and 4.12 µM; in the experiment with KM12 colon it was 1.46 µM; in the experiment with SF-268 CNS, 10.5 µM; with OVCAR-3 ovarian, 0.329 µM and 0.754 µM. The TGI is 2.97 µM in the experiment with TK-10 renal; 0.612 µM and 1.37 µM with OVCAR-4 ovarian; 2.12 µM in the experiment on MALME-3M melanoma.

On to `O=C(O)c1ccccc1-c1ccccc1C(=O)Nc1ccc2c(c1)Cc1ccccc1-2`, for which the TGI with NCI-H23 lung is 36.6 µM; in the experiment with SF-539 CNS, 44.6 µM; in the experiment with UACC-62 melanoma, 32 µM; in the experiment with KM12 colon it was more than 100 µM; with SF-268 CNS, more than 100 µM; with OVCAR-3 ovarian it was 69.9 µM. In addition, the TGI in the experiment with TK-10 renal, in the experiment on OVCAR-4 ovarian, in the experiment on MALME-3M melanoma and in the experiment on CAKI-1 renal was more than 100 µM in each case.

For the compound `CC(C)(C)c1cc(Oc2ccc(C#N)c(C#N)c2)cc(C(C)(C)C)c1`, the TGI with NCI-H23 lung, in the experiment on SF-539 CNS, with UACC-62 melanoma, in the experiment on KM12 colon, in the experiment on SF-268 CNS and in the experiment on OVCAR-3 ovarian was more than 100 µM throughout. In addition, the TGI in the experiment on TK-10 renal, in the experiment on OVCAR-4 ovarian, in the experiment on MALME-3M melanoma and in the experiment on CAKI-1 renal was more than 100 µM in each case.

Take `Cc1ccc(C)c(NC(=O)C(=O)CC(=O)c2cccc3ccccc23)c1`: the TGI with NCI-H23 lung, in the experiment with SF-539 CNS, with UACC-62 melanoma, in the experiment on KM12 colon, in the experiment with SF-268 CNS and in the experiment with OVCAR-3 ovarian was more than 100 µM throughout. Moreover, the TGI in the experiment on TK-10 renal, in the experiment on OVCAR-4 ovarian, in the experiment with MALME-3M melanoma and in the experiment with CAKI-1 renal was more than 100 µM each time.

Regarding `O=C1C=CC(=O)c2c1cc1ccccc1c2O`, the TGI in the experiment on NCI-H23 lung was determined as 27.6 µM; with SF-539 CNS, 25 µM; with UACC-62 melanoma it was 20 µM; with KM12 colon, 26.4 µM; in the experiment on SF-268 CNS, 29.2 µM; with OVCAR-3 ovarian, 4.8 µM. The TGI in the experiment on TK-10 renal turned out to be 11 µM; in the experiment with OVCAR-4 ovarian it was 5.67 µM; in the experiment on MALME-3M melanoma, 17.2 µM; in the experiment with CAKI-1 renal, 12.7 µM.

In the case of `S=C(Nc1ccc(Cl)cc1)SC1CCCCC1`, the TGI with NCI-H23 lung worked out at 45.4 µM; in the experiment with SF-539 CNS it was 61.3 µM; in the experiment with UACC-62 melanoma it was 28.8 µM; in the experiment on KM12 colon, 95.7 µM; with SF-268 CNS, 84.9 µM; in the experiment with OVCAR-3 ovarian, 56.9 µM. Besides, the TGI with TK-10 renal was more than 100 µM; with OVCAR-4 ovarian it was more than 100 µM; in the experiment with MALME-3M melanoma, 85.9 µM; in the experiment with CAKI-1 renal, more than 100 µM.

For the compound `O=[N+]([O-])c1ccc(Oc2cccc(C(F)(F)F)c2)c([N+](=O)[O-])c1`, the GI50 was 2.15 µM in the experiment on NCI-H23 lung; 3.05 µM in the experiment with SF-539 CNS; 3.78 µM in the experiment with UACC-62 melanoma; 2.52 µM in the experiment with KM12 colon; 3.17 µM in the experiment with SF-268 CNS; 3.19 µM with OVCAR-3 ovarian. The GI50 in the experiment with TK-10 renal is 3.54 µM; with OVCAR-4 ovarian, 3 µM; with MALME-3M melanoma it was 5.66 µM; in the experiment on CAKI-1 renal, 3.08 µM. Moreover, the TGI with NCI-H23 lung came out at 12 µM; with SF-539 CNS, 11.5 µM; in the experiment with UACC-62 melanoma, 15.2 µM; in the experiment with KM12 colon, 6.73 µM; in the experiment on SF-268 CNS it was 12.2 µM; in the experiment with OVCAR-3 ovarian, 9.21 µM. Moreover, the TGI with TK-10 renal was 9.33 µM; in the experiment on OVCAR-4 ovarian, 19.9 µM; in the experiment on MALME-3M melanoma, 23.9 µM; in the experiment with CAKI-1 renal it was 21.5 µM.

For `Cc1ccc(C2NC(=S)N3C(c4ccc(C)cc4)NC(=S)N23)cc1` (centres undefined), the GI50 with NCI-H23 lung is 5.29 µM; in the experiment with SF-539 CNS it was 4.12 µM; with UACC-62 melanoma it was 1.88 µM; in the experiment on KM12 colon it was 4.04 µM; in the experiment on SF-268 CNS, 7.78 µM; with OVCAR-3 ovarian, 3.26 µM. In addition, the GI50 in the experiment with TK-10 renal is 12.3 µM; in the experiment with OVCAR-4 ovarian, 9.89 µM; with MALME-3M melanoma, 12.4 µM; with CAKI-1 renal, 2.68 µM. For the same compound, the TGI with NCI-H23 lung amounted to 17.9 µM; with SF-539 CNS, 13.7 µM; in the experiment with UACC-62 melanoma, 11.7 µM; with KM12 colon, 17.4 µM; in the experiment with SF-268 CNS, 22.1 µM; in the experiment with OVCAR-3 ovarian, 11.5 µM. Further, the TGI in the experiment on TK-10 renal turned out to be 26.9 µM; in the experiment with OVCAR-4 ovarian it was 21.9 µM; with MALME-3M melanoma, 28.1 µM; in the experiment on CAKI-1 renal, 7.01 µM.

Take `COC(=O)[C@H]1CC(=O)C=C2CCCC21` (some centres undefined): the TGI with NCI-H23 lung, with SF-539 CNS, in the experiment with UACC-62 melanoma, in the experiment with KM12 colon, in the experiment on SF-268 CNS and in the experiment on OVCAR-3 ovarian was more than 100 µM throughout. Moreover, the TGI in the experiment with TK-10 renal, in the experiment on OVCAR-4 ovarian, in the experiment with MALME-3M melanoma and with CAKI-1 renal was more than 100 µM throughout.

`O=C1c2cccc3cccc(c23)C(=O)N1CC#Cc1ccc2c3c(cccc13)C(=O)N(CCN1CCNCC1)C2=O`: the GI50 was 2.38 µM in the experiment on NCI-H23 lung; 1.82 µM in the experiment on SF-539 CNS; 1.88 µM with UACC-62 melanoma; 2.12 µM in the experiment on KM12 colon; 13.5 µM with SF-268 CNS; 3.6 µM with OVCAR-3 ovarian. Besides, the GI50 in the experiment with TK-10 renal was 2.61 µM; in the experiment on OVCAR-4 ovarian, 1.93 µM; in the experiment on MALME-3M melanoma it was 1.84 µM; with CAKI-1 renal, 2.72 µM. Besides, the TGI is 5.74 µM in the experiment with NCI-H23 lung; 3.39 µM in the experiment with SF-539 CNS; 4.44 µM in the experiment with UACC-62 melanoma; 4.6 µM with KM12 colon; 35.5 µM in the experiment with SF-268 CNS; 12.4 µM in the experiment on OVCAR-3 ovarian. In addition, the TGI stood at 7.54 µM with TK-10 renal, 3.82 µM in the experiment on OVCAR-4 ovarian, 3.7 µM in the experiment on MALME-3M melanoma and 10.5 µM in the experiment on CAKI-1 renal.

With `O=S(=O)(CC(O)C(Cl)(Cl)Cl)NNc1ccccc1` (centres undefined), the TGI in the experiment on NCI-H23 lung, in the experiment on SF-539 CNS, with UACC-62 melanoma, in the experiment with KM12 colon, in the experiment on SF-268 CNS and with OVCAR-3 ovarian was more than 100 µM throughout. Further, the TGI in the experiment with TK-10 renal, with OVCAR-4 ovarian, in the experiment with MALME-3M melanoma and in the experiment with CAKI-1 renal was more than 100 µM each time.

(Values after PubChem BioAssay (NCI).)
